Assay results published in ChEMBL document CHEMBL4049445.
Active and inactive are the calls of the source. No cut-off for these calls is given here.

Test system: Influenza A virus
Assay: Antiviral activity against Influenza A virus A/PR/8/34 expressing amantadine-resistant M2 proton channel S31N mutant infected in MDCK cells
Format: functional, cell-based
Settings: A/Puerto Rico/8/1934(H1N1)

Structure (SMILES)	Activity
CCN1CCC(C2C3CC4CC(C3)CC2C4)CC1 (configuration not stated)	inactive
C1CC(C2C3CC4CC(C3)CC2C4)CCN1 (configuration not stated)	inactive
OC1(CC2CCNCC2)C2CC3CC(C2)CC1C3 (configuration not stated)	inactive
N=C(N)N1CCC(C=C2C3CC4CC(C3)CC2C4)CC1	inactive
C1CCC(C23CC4CC(CC(C4)C2)C3)NC1 (configuration not stated)	inactive
N=C(N)N1CCC(C23CC4CC(CC(C4)C2)C3)CC1	inactive
N=C(N)N1CCC(CC2C3CC4CC(C3)CC2C4)CC1 (configuration not stated)	inactive
OC1(C2CCNCC2)C2CC3CC(C2)CC1C3 (configuration not stated)	inactive
CN1CCC(CC2C3CC4CC(C3)CC2C4)CC1 (configuration not stated)	inactive
C1CC(C23CC4CC(CC(C4)C2)C3)CCN1	inactive
C1CC(CC2C3CC4CC(C3)CC2C4)CCN1 (configuration not stated)	inactive
C(=C1C2CC3CC(C2)CC1C3)C1CCNCC1	inactive
